# Experimental data published in US10045981B2, “Selective kinase inhibitors” (JAKPHARM, LLC, priority 2015, dated 2018).
# pIC50: −log10 of the molar value. Where two headings read alike, the source gives them in different places. Marks after values point to notes of the source that are not given here.
# Columns and labels:
# CK1g1 = CK1g1 (Homo sapiens, UniProt Q9HCP0); assay: Exemplary Kinase Panel Analysis; format: biochemical; details: 10 concentrations, 3-fold serial dilutions starting at 5 μM, duplicate
# EGFR (d746-750) = EGFR (d746-750) (Homo sapiens, UniProt P00533, DEL746-750); assay: Exemplary Kinase Panel Analysis; format: biochemical; details: 10 concentrations, 3-fold serial dilutions starting at 5 μM, duplicate
# hERG = molecular target: T1, hERG (Homo sapiens, UniProt Q12809); assay: hERG K+ channel current in HEK293 cells; format: cell-based
# T1 construct: expressed in transfected cells; host or cells: HEK293
# EGFR (L861Q) = EGFR (L861Q) (Homo sapiens, UniProt P00533, L861Q); assay: Exemplary Kinase Panel Analysis; format: biochemical; details: 10 concentrations, 3-fold serial dilutions starting at 5 μM, duplicate
# EGFR = EGFR (Homo sapiens, UniProt P00533); assay: Exemplary Kinase Panel Analysis; format: biochemical; details: 10 concentrations, 3-fold serial dilutions starting at 5 μM, duplicate
# Experimental: Kinase Panel: These compounds were tested against 439 kinases. […]. […] The results are presented in Table 2 below, where empty cells indicate no inhibition or compound activity that could not be fit to an IC50 curve.
# JAK3 = molecular target: T2, JAK3 (Homo sapiens, UniProt P52333); assay: JAK3 biochemical IC50; details: for JAK3 selectivity vs. STAT5: STAT5 IC50 relative to JAK3 IC50; for pIC50: read-out: JAK3 biochemical IC50; for selectivity for JAK3 compared to JAK1, JAK2, and TYK2 (in words): two independent analyses
# T2 sequence (P52333 1-1124): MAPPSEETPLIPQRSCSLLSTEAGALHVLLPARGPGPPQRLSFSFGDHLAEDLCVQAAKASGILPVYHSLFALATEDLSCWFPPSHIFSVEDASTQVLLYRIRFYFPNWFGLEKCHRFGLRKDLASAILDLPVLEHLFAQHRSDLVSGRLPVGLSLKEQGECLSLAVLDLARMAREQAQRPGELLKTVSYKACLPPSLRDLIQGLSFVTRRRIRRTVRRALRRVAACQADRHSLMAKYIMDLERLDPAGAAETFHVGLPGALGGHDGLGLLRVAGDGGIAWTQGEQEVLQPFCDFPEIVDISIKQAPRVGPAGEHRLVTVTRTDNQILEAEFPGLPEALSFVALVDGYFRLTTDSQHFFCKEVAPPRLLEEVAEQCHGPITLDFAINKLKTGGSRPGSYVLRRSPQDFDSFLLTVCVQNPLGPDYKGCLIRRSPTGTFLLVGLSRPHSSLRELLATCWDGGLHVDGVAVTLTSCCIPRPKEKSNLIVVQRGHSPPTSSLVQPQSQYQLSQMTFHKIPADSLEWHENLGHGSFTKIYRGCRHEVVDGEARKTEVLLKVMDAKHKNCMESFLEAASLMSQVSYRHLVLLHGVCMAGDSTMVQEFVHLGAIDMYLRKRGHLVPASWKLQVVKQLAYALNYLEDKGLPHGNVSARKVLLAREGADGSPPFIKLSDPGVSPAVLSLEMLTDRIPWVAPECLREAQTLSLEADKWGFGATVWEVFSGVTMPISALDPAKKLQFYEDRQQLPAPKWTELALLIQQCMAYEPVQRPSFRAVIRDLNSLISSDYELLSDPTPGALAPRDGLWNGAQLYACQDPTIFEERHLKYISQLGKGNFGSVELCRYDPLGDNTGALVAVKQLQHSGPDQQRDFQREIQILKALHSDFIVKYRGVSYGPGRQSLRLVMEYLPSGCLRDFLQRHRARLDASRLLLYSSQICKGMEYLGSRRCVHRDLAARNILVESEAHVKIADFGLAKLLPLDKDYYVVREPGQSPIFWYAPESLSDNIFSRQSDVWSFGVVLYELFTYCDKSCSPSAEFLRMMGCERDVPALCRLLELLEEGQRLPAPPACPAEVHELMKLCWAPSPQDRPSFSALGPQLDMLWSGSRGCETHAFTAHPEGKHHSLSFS
# [1] = Original analysis, read-out: JAK3 IC50 (uM) Original
# [2] = Table 3, first session (before /)
# [3] = Table 3, second session (after /)
# [4] = re-test, read-out: JAK3 IC50 (uM) re-test
# Sequence of CK1g1 (Q9HCP0 whole entry): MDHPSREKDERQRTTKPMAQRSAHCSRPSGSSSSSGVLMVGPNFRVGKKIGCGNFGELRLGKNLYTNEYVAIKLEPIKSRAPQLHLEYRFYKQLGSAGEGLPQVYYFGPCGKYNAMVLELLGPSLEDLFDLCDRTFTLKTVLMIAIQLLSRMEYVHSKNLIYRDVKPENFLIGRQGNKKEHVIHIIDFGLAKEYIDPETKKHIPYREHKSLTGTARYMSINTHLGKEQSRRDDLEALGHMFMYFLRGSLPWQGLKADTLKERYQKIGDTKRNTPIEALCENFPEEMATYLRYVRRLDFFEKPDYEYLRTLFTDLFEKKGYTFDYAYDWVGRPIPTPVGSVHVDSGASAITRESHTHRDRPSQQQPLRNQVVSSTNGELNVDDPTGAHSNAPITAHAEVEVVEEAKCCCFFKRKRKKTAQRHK
# T1 sequence (Q12809 whole entry): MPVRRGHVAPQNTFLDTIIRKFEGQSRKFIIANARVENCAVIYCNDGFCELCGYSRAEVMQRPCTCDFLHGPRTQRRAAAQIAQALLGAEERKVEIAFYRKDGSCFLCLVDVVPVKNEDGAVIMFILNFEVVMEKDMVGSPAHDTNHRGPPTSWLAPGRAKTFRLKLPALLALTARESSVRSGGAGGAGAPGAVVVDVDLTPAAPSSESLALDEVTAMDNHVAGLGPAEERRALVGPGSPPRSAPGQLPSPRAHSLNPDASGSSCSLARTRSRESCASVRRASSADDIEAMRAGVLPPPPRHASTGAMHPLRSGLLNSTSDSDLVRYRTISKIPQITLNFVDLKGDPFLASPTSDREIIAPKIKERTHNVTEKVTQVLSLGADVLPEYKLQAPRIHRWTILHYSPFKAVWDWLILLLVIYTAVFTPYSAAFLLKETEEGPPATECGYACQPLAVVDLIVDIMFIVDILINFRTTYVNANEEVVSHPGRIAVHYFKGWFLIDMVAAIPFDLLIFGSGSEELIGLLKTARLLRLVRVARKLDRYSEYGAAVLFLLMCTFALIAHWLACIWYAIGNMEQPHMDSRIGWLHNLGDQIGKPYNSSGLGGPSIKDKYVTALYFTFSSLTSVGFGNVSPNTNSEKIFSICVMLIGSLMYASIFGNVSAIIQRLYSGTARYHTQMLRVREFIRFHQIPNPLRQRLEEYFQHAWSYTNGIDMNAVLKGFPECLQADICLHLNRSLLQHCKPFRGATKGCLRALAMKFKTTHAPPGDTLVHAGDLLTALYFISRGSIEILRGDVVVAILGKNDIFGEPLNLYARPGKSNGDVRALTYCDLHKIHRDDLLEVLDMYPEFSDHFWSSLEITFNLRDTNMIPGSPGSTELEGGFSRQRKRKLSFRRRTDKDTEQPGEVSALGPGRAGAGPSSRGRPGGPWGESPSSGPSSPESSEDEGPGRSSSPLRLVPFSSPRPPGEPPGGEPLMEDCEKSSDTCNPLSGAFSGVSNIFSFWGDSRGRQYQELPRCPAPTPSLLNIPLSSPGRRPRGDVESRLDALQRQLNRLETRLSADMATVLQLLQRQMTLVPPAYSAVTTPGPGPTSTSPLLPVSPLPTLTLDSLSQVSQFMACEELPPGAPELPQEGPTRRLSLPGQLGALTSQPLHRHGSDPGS
# Sequence of EGFR (L861Q) (P00533 25-1210 L861Q): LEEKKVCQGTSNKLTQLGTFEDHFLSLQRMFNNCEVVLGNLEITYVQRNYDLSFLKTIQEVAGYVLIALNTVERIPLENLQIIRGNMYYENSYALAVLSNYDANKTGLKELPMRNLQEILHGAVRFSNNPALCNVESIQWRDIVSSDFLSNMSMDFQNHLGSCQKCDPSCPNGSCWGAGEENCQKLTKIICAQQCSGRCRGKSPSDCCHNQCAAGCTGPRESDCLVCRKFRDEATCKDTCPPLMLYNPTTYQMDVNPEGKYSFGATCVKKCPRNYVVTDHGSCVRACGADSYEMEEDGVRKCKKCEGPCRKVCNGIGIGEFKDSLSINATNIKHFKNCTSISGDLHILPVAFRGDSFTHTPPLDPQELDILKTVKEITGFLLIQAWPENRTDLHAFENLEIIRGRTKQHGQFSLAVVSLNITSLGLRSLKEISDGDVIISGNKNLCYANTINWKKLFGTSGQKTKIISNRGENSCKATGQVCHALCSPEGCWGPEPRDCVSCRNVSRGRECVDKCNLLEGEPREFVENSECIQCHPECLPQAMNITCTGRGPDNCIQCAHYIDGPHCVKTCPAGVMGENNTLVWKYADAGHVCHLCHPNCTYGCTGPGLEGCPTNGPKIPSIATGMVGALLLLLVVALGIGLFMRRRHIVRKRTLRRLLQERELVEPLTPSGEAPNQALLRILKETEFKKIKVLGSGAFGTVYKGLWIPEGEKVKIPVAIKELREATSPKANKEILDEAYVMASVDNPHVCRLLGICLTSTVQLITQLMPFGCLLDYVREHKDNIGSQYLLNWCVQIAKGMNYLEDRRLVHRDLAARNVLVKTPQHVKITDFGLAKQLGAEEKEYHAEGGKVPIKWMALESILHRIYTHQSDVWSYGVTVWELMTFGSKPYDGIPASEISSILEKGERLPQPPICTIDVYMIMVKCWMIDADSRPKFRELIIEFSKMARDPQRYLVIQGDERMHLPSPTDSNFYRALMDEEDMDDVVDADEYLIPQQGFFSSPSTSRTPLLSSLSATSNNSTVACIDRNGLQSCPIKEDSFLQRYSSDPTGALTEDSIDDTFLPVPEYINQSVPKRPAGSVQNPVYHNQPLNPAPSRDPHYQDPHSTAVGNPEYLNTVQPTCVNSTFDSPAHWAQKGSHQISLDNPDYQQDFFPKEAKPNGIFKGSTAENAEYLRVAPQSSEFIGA
# Sequence of EGFR (P00533 25-1210): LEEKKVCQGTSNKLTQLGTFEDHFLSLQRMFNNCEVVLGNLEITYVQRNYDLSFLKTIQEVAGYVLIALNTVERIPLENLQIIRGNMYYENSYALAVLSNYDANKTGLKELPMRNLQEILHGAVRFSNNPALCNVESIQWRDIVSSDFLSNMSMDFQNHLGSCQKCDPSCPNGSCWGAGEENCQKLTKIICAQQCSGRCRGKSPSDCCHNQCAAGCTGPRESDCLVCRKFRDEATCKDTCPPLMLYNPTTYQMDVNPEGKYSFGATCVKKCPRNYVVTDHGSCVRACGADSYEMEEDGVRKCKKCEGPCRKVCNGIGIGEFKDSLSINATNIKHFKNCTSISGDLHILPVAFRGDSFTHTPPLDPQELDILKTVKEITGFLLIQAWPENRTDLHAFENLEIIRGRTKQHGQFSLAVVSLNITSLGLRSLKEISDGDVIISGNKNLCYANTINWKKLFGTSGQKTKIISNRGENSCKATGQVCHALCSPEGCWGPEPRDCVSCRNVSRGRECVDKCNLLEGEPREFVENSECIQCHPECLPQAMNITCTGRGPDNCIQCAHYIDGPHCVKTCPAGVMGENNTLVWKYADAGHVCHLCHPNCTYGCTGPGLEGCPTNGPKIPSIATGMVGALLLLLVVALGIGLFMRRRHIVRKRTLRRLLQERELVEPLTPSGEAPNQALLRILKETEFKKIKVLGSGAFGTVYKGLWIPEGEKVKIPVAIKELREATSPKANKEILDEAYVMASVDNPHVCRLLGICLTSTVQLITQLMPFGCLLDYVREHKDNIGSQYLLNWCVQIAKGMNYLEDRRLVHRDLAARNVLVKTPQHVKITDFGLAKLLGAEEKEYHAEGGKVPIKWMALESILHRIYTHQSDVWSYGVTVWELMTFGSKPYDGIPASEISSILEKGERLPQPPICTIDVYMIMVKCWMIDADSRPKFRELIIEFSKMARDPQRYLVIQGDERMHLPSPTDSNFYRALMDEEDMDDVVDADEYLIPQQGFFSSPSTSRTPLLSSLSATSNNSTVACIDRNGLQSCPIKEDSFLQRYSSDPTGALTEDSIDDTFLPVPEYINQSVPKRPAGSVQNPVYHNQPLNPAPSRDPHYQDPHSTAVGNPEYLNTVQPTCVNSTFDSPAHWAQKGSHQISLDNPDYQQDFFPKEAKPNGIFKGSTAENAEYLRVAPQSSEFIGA
# Sequence of EGFR (d746-750) (P00533 with tags, fused parts or gaps DEL746-750 limits assumed): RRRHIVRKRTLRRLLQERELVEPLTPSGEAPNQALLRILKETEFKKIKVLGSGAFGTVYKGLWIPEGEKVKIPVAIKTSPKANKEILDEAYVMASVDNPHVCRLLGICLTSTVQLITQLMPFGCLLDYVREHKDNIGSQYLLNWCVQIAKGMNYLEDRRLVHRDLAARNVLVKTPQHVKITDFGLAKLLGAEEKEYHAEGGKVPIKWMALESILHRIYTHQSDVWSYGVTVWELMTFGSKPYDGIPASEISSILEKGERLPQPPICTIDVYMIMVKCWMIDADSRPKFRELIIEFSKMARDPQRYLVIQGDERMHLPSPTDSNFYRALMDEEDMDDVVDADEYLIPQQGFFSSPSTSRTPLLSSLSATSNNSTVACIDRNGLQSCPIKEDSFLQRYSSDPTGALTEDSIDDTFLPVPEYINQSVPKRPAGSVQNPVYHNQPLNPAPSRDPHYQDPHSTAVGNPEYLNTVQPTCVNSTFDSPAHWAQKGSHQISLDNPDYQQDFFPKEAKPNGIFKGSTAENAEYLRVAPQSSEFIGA
pIC50 (CK1g1),pIC50 (EGFR (d746-750)),pIC50 (EGFR (L861Q)),pIC50 (EGFR),IC50 (JAK3; [1]) [µM],JAK3 selectivity vs. STAT5 (JAK3),pIC50 (JAK3; [2]),pIC50 (JAK3; [3]),IC50 (JAK3; [4]) [µM],"selectivity for JAK3 compared to JAK1, JAK2, and TYK2 (in words) (JAK3)",SMILES,pIC50 (hERG)
6.23,6.46,6.45,6.43,0.013,(178X)*,7.89,8.00,0.01,highly selective for JAK3,C=CC(=O)Nc1cc(CN2CCN(C)C(=O)C2)cc(-c2cnc3ccccc3n2)c1 [Compound 1a],< 5.00
6.96,,,,0.016,(382X)*,7.80,7.64,0.023,highly selective for JAK3,C=CC(=O)Nc1cc(NS(C)(=O)=O)cc(-c2cnc3ccccc3n2)c1 [Compound 3],< 6.00
7.10,,,,0.013,(370X)*,7.82,8.15,0.007,highly selective for JAK3,C=CC(=O)Nc1cc(CC(=O)OC)cc(-c2cnc3ccccc3n2)c1 [Compound 2],< 5.00
6.13,5.64,5.58,5.54,0.018,(392X)*,7.74,7.74,0.018,highly selective for JAK3,"C=CC(=O)Nc1cc(CN2CCNC(=O)C2)cc(-c2cnc3ccccc3n2)c1 [Compound 1b, N-[3-[(3-oxopiperazin-1-yl)methyl]-5-quinoxalin-2-yl-phenyl] prop-2-enamide]",< 5.00
